Source: patent US8236794B2, “Treatment of mesothelioma” (Ed. Geistlich Soehne AG fuer Chemische Industrie, priority 2003, dated 2012)
Entries after “also recorded” stand apart in the source; their conditions may differ.

How the values were obtained:
[1] = system: human malignant glioma cell line LN-229; experiment: Cell viability and Fas-ligand mediated apoptosis in glioma cells; assay type: cell-based; details: LN-229 cells; for Effect on destruction of cells by Fas-ligand: combined with Fas-ligand
Protocol: The present invention relates to the ability of methylol transfer agents, such as taurolidine, to induce cell toxicity, and to enhance Fas-ligand mediated apoptosis. Both taurolidine and its congener taurultam enhance the apoptotic effect of Fas-ligand in cancer cells at drug concentrations which per se show practically no effect on cell viability. For example, in the human malignant glioma cell line LN-229 cell viability was reduced directly following incubation with taurolidine or taurultam alone. […] Thus, the use of methylol transfer agents to induce apoptotic cell death provides a means for treating mesothelioma as in the present invention.

malignant mesothelioma = experiment: Therapy of mesothelioma with taurolidine: single-patient case, two treatment cycles, intravenous plus intrapleural; assay type: in vivo, human
Excerpt: The following is a case involving treatment of an individual for two treatment cycles. Patient: Diagnosis: Malignant mesothelioma two yrs. ago (stage III according to IMIG stadiation) Prior treatments: Treated with CT with Cis-Platinum/Gemcitabine, Local recurrency with pleural effusion. Treated with taurolidine 2%, Two cycles of three weeks with taurolidine both intravenous and intrapleural administration I.V: 4 bottles daily for 5 days for three weeks (2 cycles) I.P: 1 bottle daily for 5 days for three weeks (2 cycles)

[2] = cited from earlier work

Compound	Effect on destruction of cells by Fas-ligand [1]	Cell viability following incubation with compound alone [1]	Main side effects, I.P. (intrapleural) administration (malignant mesothelioma; I.P. 1 bottle taurolidine 2% daily for 5 days for three weeks (2 cycles))	Main side effects, I.V. administration (malignant mesothelioma; I.V. 4 bottles taurolidine 2% daily for 5 days for three weeks (2 cycles))	Side effects obliging discontinuance of the treatment (malignant mesothelioma; I.V. and I.P. administration, 2 cycles)	Clinical response (malignant mesothelioma; same patient and regimen, preliminary response evaluation)	Patient's condition after treatment (malignant mesothelioma; two treatment cycles, I.V. and I.P.)	Water solubility [2]
O=S1(=O)CCNCN1 [taurultam]	enhanced the destruction of LN-229 cells by Fas-ligand	reduced						
O=S1(=O)CCN(CN2CCS(=O)(=O)NC2)CN1 [taurolidine, Bis-(1,1-dioxoperhydro-1,2,4-thiadiazinyl-4)methane]	enhanced the destruction of LN-229 cells by Fas-ligand	reduced	Local burning at the site of instillation; also recorded: Thoracic burning of significant grade	Mild local burning at the site of instillation; also recorded: Transient symptomatic hypthension	None	Highly significant reduction of the dyspnea	marked improvement	up to 2%
